Results taken from patent publication US20190167771A1, “CONTROL ANGIOGENESIS BY REGULATING PHOSPHORYLATION OF SERYL-tRNA SYNTHETASE (SerRS)” (The Scripps Research Institute, priority 2016, published 2019).

Test system: Vegfa
Assay: Vegfa mRNA by qRT-PCR in zebrafish embryos with SerRS knockdown and mRNA co-injection
Type: in vivo
Details: human SerRS mRNA co-injected with SerRS-MO, 3 dpf
Experimental: In FIG. 2A, wild type SerRS (SerRS^WT), its mutants with double substitutions of serine 101 and 241 with alanine or aspartic acid residues (SerRS^S101A/S241A and SerRS^S101D/S241D), or empty vector were transfected into HEK293 cells. The expression levels of SerRS proteins was measured by immunoblot (bottom) and VEGFA expression was determined by qRT-PCR (means±SEM from three independent experiments; ***P<0.0001). In FIGS. 2B-D, the roles of SerRS^S101A/S241A and SerRS^S101D/S241D in regulating vascular development in vivo in zebrafish were examined by co-injection of SerRS^S101A/S241A and SerRS^S101D/S241D mRNAs into one-cell-stage embryos whose endogenous SerRS was knocked down by injection of antisense morpholino (SerRS-MO) that led to abnormal high expression of Vegfa and hypervascularization (shown by short bold arrows in FIG. 2C). At 3 day post fertilization (dpf), embryos were harvested and Vegfa expression levels were measured by qRT-PCR (means±SEM, n=125-211; *P<0.01, **P<0.001) (B). The development of intersegmental vessel (ISV) at 3 dpf was examined (C) and the statistics of ISV abnormal branching rescued by SerRS^WT or mutant SerRS mRNA injections was analyzed (D; χ^2-test,* P>0.05 vs SerRS^WT, **P>0.1 vs SerRS-MO, ***P<1×10^−28 vs control-MO). In FIG. 2E, the binding affinities of SerRS^WT or SerRS^S101D/S241D with ^32P labeled DNA fragments corresponding to SerRS binding site on human VEGFA promoter were examined by EMSA. In FIG. 2F, the binding of SerRS^WT, SerRS^S101A/S241A, or SerRS^S101D/S241D on VEGFA promoter in HEK293 cells was examined by chromatin immunoprecipitation (ChIP) and qPCR (means±SEM from two independent experiments; ***P<0.0001). In FIG. 2G, the binding of endogenous SerRS on VEGFA promoter during hypoxia course was monitored by ChIP (means±SEM from three independent experiments; *P<0.05, **P<0.005 vs normal).
Total RNA was isolated from cells and zebrafish embryos by TRIzol Reagent (ThermoFisher Scientific). […] of the total RNA from each sample was reversely transcribed to cDNA by M-MLV reverse transcriptase (Promega, Madison, Wis., USA). All real-time PCR reactions were performed using the StepOnePlus Real-Time PCR system (ThermoFisher Scientific) with SYBR Select Master Mix ThermoFisher Scientific). […]

SerRS^S101A/S241A: phosphorylation-deficient human SerRS double mutant, serine 101 and 241 to alanine, SEQ ID NO: 4 (mouse version in matrigel assay)
rescue of Vegfa mRNA increase caused by SerRS-MO: rescued or largely rescued

SerRS^S101D/S241D: SerRS with double substitutions of S101 and S241 with aspartic acid, mimics the phosphorylated SerRS
rescue of Vegfa mRNA increase caused by SerRS-MO: no rescue effect at all

SerRS^WT: wildtype human seryl-tRNA synthetase protein, SEQ ID NO: 1 (mouse wild type used in the 3B11 matrigel assay)
rescue of Vegfa mRNA increase caused by SerRS-MO: rescued or largely rescued
